The target in assay [1] is T1, HCV genotype 1b (BK) NS3 modified enzyme with a R155K mutation (Hepatitis C virus genotype 1b, UniProt P26663, R1181K).
T1 construct: HCV genotype 1b (BK) NS3 modified enzyme
As to the kind of experiment: HCV NS3 protease time-resolved fluorescence (TRF) assay, genotype 1b R155K. The class given is biochemical. As to conditions: Ki 1b R155K, genotype 1b (BK) NS3 R155K; single value. In short, it runs like this:
(§1)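 Steps: compound plus NS3/NS4A enzyme for 10 minutes; add peptide substrate to 25 nM; let cleavage proceed 6 hours at room temperature; read product fluorescence (340 nm excitation, 615 nm emission, delayed 400 μs). Enzyme levels gave signal/background 5-20.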

For assay [2], the target named is HCV NS3 protease genotype 3a (3A-1) (Hepatitis C virus genotype 3a, UniProt Q81258). Description: HCV NS3 protease time-resolved fluorescence (TRF) assay, genotype 3a. To be noted: Ki 3a. The class given is biochemical. The procedure, abridged: as §1

Structures are written as SMILES.

Ki data for 5 compounds are collected here from patent US9328138B2 (priority 2011, dated 2016).

Usually Ki stands for the dissociation constant of the complex between target and ligand, obtained from inhibition or displacement. A higher Ki goes with weaker binding.

Regarding `C=C[C@@H]1C[C@]1(NC(=O)[C@@H]1C[C@@H]2CN1C(=O)[C@H](C(C)(C)C)NC(=O)O[C@@H]1C[C@H]1CCCCCc1c(nc3c(OC)cccc3c1OCCCN1CCCC1)O2)C(=O)NS(=O)(=O)C1(C)CC1` [Example 143, (1aR,5S,8S,10R,22aR)-5-tert-butyl-N-[(1R,2S)-2-ethenyl-1-{[(1-methylcyclopropyl)sulfonyl]carbamoyl}cyclopropyl]-13-methoxy-3,6-dioxo-17-[3-(pyrrolidin-1-yl)propoxy]-1,1a,3,4,5,6,9,10,18,19,20,21,22,22a-tetradecahydro-8H-7,10-methanocyclopropa[18,19][1,10,3,6]dioxadiazacyclononadecino[11,12-b]quinoline-8-carboxamide], the Ki in assay [1] worked out at 0.059 nM; in assay [2], 0.64 nM.

As to `C=C[C@@H]1C[C@]1(NC(=O)[C@@H]1C[C@@H]2CN1C(=O)[C@H](C(C)(C)C)NC(=O)O[C@@H]1C[C@H]1CCCCCc1c(nc3ccccc3c1OCCCNCCCCc1ccccc1)O2)C(=O)NS(=O)(=O)C1(C)CC1` [Example 198, (1aR,5S,8S,10R,22aR)-5-tert-butyl-N-[(1R,2S)-2-ethenyl-1-{[(1-methylcyclopropyl)sulfonyl]carbamoyl}cylcopropoyl]-3,6-dioxo-17-{3-[(4-phenylbutyl)amino]propoxy}-1,1a,3,4,5,6,9,10,18,19,20,21,22,22a-tetra decahydro-8H-7,10-methanocyclopropa[18,19][1,10,3,6] dioxadiazacyclononadecino[11,12-b] quinoline-8-carboxamide], the figures for the Ki in assay [1] and in assay [2] were 0.05 nM and 0.77 nM, respectively.

For `C=C[C@@H]1C[C@]1(NC(=O)[C@@H]1C[C@@H]2CN1C(=O)[C@H](C1CCCC1)NC(=O)O[C@@H]1CCC[C@H]1CC/C=C/Cc1c(nc3ccccc3c1OCCN1CC3(CCC3)C1)O2)C(=O)NS(=O)(=O)C1(C)CC1` [Example 86, (3aR,7S,10S,12R,21E,24aS)-19-[2-(2-azaspiro[3.3]hept-2-yl)ethoxy]-7-cyclopentyl-N-[(1R,2S)-2-ethenyl-1-{[(1-methylcyclopropyl)sulfonyl]carbamoyl}cyclopropyl]-5,8-dioxo-1,2,3,3a,5,6,7,8,11,12,20,23,24,24a-tetradecahydro-10H-9,12-methanocyclopenta[18,19] [1,10,3,6]dioxadiazacyclononadecino [11,12-b]quinoline-10-carboxamide], the Ki is 0.23 nM in assay [1] and 4.4 nM in assay [2].

In the case of `C=C[C@@H]1C[C@]1(NC(=O)[C@@H]1C[C@@H]2CN1C(=O)[C@H](C1CCCCC1)NC(=O)O[C@@H]1C[C@H]1CCCCCc1c(nc3ccccc3c1OCCN1CCOCC1)O2)C(=O)NS(=O)(=O)C1(C)CC1` [Example 122, (1aR,5S,8S,10R,22aR)-5-cyclohexyl-N-[(1R,2S)-2-ethenyl-1-{[(1-methylcyclopropyl)sulfonyl]carbamoyl}cyclopropyl]-17-[2-(morpholin-4-yl)ethoxy]-3,6-dioxo-1,1,a,3,4,5,6,9,10,18,19,20,21, 22,22a-tetradecahydro-8H-7,10-methanocyclopropa[18,19][1,10,3,6] dioxadiazacyclononadecino [11,12-b]quinoline-8-carboxamide], the results for the Ki in assay [1] and in assay [2] were 0.33 nM and 8.8 nM, respectively.

Turning to `C=C[C@@H]1C[C@]1(NC(=O)[C@@H]1C[C@@H]2CN1C(=O)[C@H](C(C)(C)C)NC(=O)O[C@@H]1C[C@H]1CCCCCc1c(nc3ccccc3c1OC1CCN(CCOC)CC1)O2)C(=O)NS(=O)(=O)C1(C)CC1` [Example 225, (1aR,5S,8S,10R,22aR)-5-tert-butyl-N-[(1R,2S)-2-ethenyl-1-{[(1-methylcyclopropyl)sulfonyl]carbamoyl}cyclopropyl]-17-{[1-(2-methoxyethyl)piperidin-4-yl]oxy}-3,6-dioxo-1,1a,3,4,5,6,9,10,18,19,20,21,22,22a-tetradecahydro-8H-7,10-methanocyclopropa[18,19][1,10,3,6]dioxadiazacyclononadecino[11,12-b]quinoline-8-carboxamide], the results for the Ki in assay [1] and in assay [2] were 0.079 nM and 0.6 nM, respectively.
